{"source": "PubChem BioAssay AID1996", "data": [{"details": "buffer; pH 7.4; 200.0 µM", "units": {"solubility kinetic": "µg/mL"}, "values": [{"compound": "CC(Oc1ccccc1)C(=O)Nc1nc(-c2ccncc2)cs1", "note": "(stereo unspecified)", "solubility kinetic": 2.6}, {"compound": "CCCCC(=O)N1CC(=O)Nc2ccc(F)cc2C1c1ccc(F)cc1", "note": "(stereo unspecified)", "solubility kinetic": "> 53.8"}, {"compound": "CCN(C(=O)CSc1ccccn1)C1CCCCC1", "solubility kinetic": "> 41.8"}, {"compound": "Cn1cnnc1SCC(=O)NC1CCCCCC1", "solubility kinetic": "> 40.3"}, {"compound": "CCOc1ccc(N2C(=O)C3CCCN3C2=S)cc1", "note": "(stereo unspecified)", "solubility kinetic": "> 41.5"}, {"compound": "COc1ccccc1/C=C/C(=O)N1CCc2cc(OC)c(OC)cc2C1C", "note": "(stereo unspecified)", "solubility kinetic": 33}, {"compound": "CCCc1cc(C(=O)Nc2ccc(OC)cc2[N+](=O)[O-])cs1", "solubility kinetic": "< 0.3"}, {"compound": "Cc1ccccc1Nc1ncnc2c1cnn2C", "solubility kinetic": "> 35.9"}, {"compound": "Cl.Clc1cccc(CNCCCSc2ncccn2)c1", "solubility kinetic": "> 49.5"}, {"compound": "O=C(O)C1CCCNC1", "note": "(stereo unspecified)", "solubility kinetic": 0.4}, {"compound": "COc1ccc(-c2cc(-c3cccnc3)c(C#N)c(N)n2)cc1", "solubility kinetic": 0.6}, {"compound": "CC1CCCCN1S(=O)(=O)c1csc(C(N)=O)c1", "note": "(stereo unspecified)", "solubility kinetic": "> 43.3"}, {"compound": "Cc1ccc(C)c(NC(=S)NCc2ccccc2)c1", "solubility kinetic": 40.2}, {"compound": "Nc1nccc(-c2ccc(-n3cnc4ccccc43)cc2)n1", "solubility kinetic": 2}, {"compound": "CC(=O)NS(=O)(=O)c1ccc(NC(=O)c2cccc3ccccc23)cc1", "solubility kinetic": 53.9}, {"compound": "CCCNC(=O)N1CCN(C(c2ccccc2)c2ccccc2)CC1", "solubility kinetic": 3.9}, {"compound": "COc1ccc(/C(C)=N/NC2=NCCN2)cc1Cl", "solubility kinetic": "> 40"}, {"compound": "CC1CCCCC1NC(=O)CO/N=C/c1ccc(OC(F)F)cc1", "note": "(stereo unspecified)", "solubility kinetic": 8.7}, {"compound": "CCN(Cc1cc(=O)[nH]c2ccccc12)C(=O)C(C)C", "solubility kinetic": "> 40.9"}, {"compound": "COc1ccc(-c2nc(-c3ccncc3)no2)cc1", "solubility kinetic": 1.1}, {"compound": "Cc1sc2ncnc(N3CCN(S(=O)(=O)c4ccc(C(C)(C)C)cc4)CC3)c2c1C", "solubility kinetic": 2.8}, {"compound": "Cc1cc(OC(C)C(=O)Nc2cccnc2)ccc1Cl", "note": "(stereo unspecified)", "solubility kinetic": 35.8}, {"compound": "COc1ccccc1NC(=O)c1sc(Cl)nc1C", "solubility kinetic": 36.8}, {"compound": "Cc1ccc2nc(SCC(=O)NC3CC3)[nH]c2c1", "solubility kinetic": "> 39.2"}, {"compound": "CC(N)Cc1cn(Cc2ccccc2)c2ccccc12.Cl", "note": "(stereo unspecified)", "solubility kinetic": "> 45.1"}, {"compound": "O=C(NC1CCS(=O)(=O)C1)c1cc(-c2ccccc2)nc2ccccc12", "note": "(stereo unspecified)", "solubility kinetic": "> 55"}, {"compound": "Cc1ccc(C(=O)NN2CCOCC2)cc1[N+](=O)[O-]", "solubility kinetic": "> 39.8"}, {"compound": "CC1=CCC2C(=O)N(c3ccc(S(N)(=O)=O)cc3)C(=O)C2C1", "note": "(stereo unspecified)", "solubility kinetic": "> 48.1"}, {"compound": "COCCNC(=O)c1ccccc1NC(=O)c1cccc([N+](=O)[O-])c1C", "solubility kinetic": 53.5}, {"compound": "Cc1ccc(-c2cc3ccccc3nc2N)cc1", "solubility kinetic": 4}, {"compound": "Cc1c(C(=O)Nc2ccccc2)c2ccc(C(F)(F)F)cc2n1O", "solubility kinetic": 1}, {"compound": "COc1ccc(NC(=O)NC2CCCCCCC2)cc1", "solubility kinetic": 2.5}, {"compound": "CN(C)Cc1cccc([N+](=O)[O-])c1O", "solubility kinetic": "> 29.4"}, {"compound": "Cc1ccc(-c2nc3ccc(Cl)cc3c(=O)n2O)cc1", "solubility kinetic": 42.2}, {"compound": "Cc1ccc(C(=O)O)cc1N=Nc1c(O)[nH]c(=O)[nH]c1=O", "solubility kinetic": "> 43.5"}, {"compound": "O=C1NC(=O)C(=Cc2ccsc2)C(=O)N1", "solubility kinetic": "> 33.3"}, {"compound": "COc1ccccc1CNC(=O)COC(=O)c1ccco1", "solubility kinetic": "> 43.4"}, {"compound": "O=C(Nc1ccc(Cl)cn1)C1CC1", "solubility kinetic": "> 29.5"}, {"compound": "O=C(/C=C/c1ccco1)N1CCc2ccccc21", "solubility kinetic": 31.4}, {"compound": "COc1ccc(NCc2nc3ccccc3n2C)cc1", "solubility kinetic": 35}, {"compound": "CC(C(=O)NC1CCCC1)N1CCN(Cc2ccccc2)CC1", "note": "(stereo unspecified)", "solubility kinetic": "> 47.3"}, {"compound": "Cc1ccc(OCC(=O)NCC2CCCO2)c(C)c1", "note": "(stereo unspecified)", "solubility kinetic": "> 39.5"}, {"compound": "Cc1cc2oc(=O)cc(CN3CCCCC3C)c2cc1Cl", "note": "(stereo unspecified)", "solubility kinetic": 4.5}, {"compound": "CC1CCCCC1NC(=O)COC(=O)c1cc(=O)[nH]c2ccccc12", "note": "(stereo unspecified)", "solubility kinetic": 6.8}, {"compound": "O=C(c1ccc(Cl)cc1)N1CCN(CCOc2ccccc2)CC1", "solubility kinetic": "> 51.7"}, {"compound": "COc1cc(S(=O)(=O)N2CCn3cccc3C2C)ccc1NC(C)=O", "note": "(stereo unspecified)", "solubility kinetic": "> 54.5"}, {"compound": "CCOC(=O)c1ccc(NC(=O)N2CCOCC2)cc1", "solubility kinetic": "> 41.7"}, {"compound": "Cc1csc(N)n1", "solubility kinetic": 10.8}, {"compound": "CCCOc1ccc(Oc2nc(-c3ccncc3)nc3ccccc23)cc1", "solubility kinetic": "< 0.3"}, {"compound": "CC(C)c1ccc(NC(=O)Cn2c(=O)oc3cccnc32)cc1", "solubility kinetic": 7.7}, {"compound": "O=C(CN1CCOCC1)Nc1ccc(Cl)cc1", "solubility kinetic": "> 38.2"}, {"compound": "CC(=O)c1c(Nc2cccc(F)c2)oc(C)cc1=O", "solubility kinetic": 31.3}, {"compound": "CCn1c(C)c(CS(=O)(=O)c2ccccc2)[nH]c1=O", "solubility kinetic": 9.8}, {"compound": "O=C(O)/C(=C\\c1ccco1)NC(=O)c1ccc(Br)o1", "solubility kinetic": "> 48.9"}, {"compound": "O=C(CNC(=O)c1cccs1)OCc1ccc(Cl)cc1", "solubility kinetic": 41}, {"compound": "COc1cccc(NC(=O)NCc2ccccn2)c1", "solubility kinetic": "> 38.6"}, {"compound": "CN(C)S(=O)(=O)c1cccc(NC(=O)Cc2ccsc2)c1", "solubility kinetic": "> 48.7"}, {"compound": "Cc1ccc(N2CC(C(=O)Nc3ccccc3N3CCCC3)CC2=O)cc1", "note": "(stereo unspecified)", "solubility kinetic": 21.4}, {"compound": "Cc1ccc(-c2nc(-c3ccncc3)no2)cc1", "solubility kinetic": 1.1}, {"compound": "CC(=O)N/C(=C\\c1ccccc1)C(=O)OCC(=O)c1c(N)n(C)c(=O)n(C)c1=O", "solubility kinetic": 18.2}, {"compound": "CCCCCCCN1C2=NCCN2c2ccccc21.Cl", "solubility kinetic": "> 44.1"}]}]}
